For experiment [1], the target named is T1, Nitric oxide synthase, inducible (Mus musculus, UniProt P29477).
T1 sequence (P29477 whole entry): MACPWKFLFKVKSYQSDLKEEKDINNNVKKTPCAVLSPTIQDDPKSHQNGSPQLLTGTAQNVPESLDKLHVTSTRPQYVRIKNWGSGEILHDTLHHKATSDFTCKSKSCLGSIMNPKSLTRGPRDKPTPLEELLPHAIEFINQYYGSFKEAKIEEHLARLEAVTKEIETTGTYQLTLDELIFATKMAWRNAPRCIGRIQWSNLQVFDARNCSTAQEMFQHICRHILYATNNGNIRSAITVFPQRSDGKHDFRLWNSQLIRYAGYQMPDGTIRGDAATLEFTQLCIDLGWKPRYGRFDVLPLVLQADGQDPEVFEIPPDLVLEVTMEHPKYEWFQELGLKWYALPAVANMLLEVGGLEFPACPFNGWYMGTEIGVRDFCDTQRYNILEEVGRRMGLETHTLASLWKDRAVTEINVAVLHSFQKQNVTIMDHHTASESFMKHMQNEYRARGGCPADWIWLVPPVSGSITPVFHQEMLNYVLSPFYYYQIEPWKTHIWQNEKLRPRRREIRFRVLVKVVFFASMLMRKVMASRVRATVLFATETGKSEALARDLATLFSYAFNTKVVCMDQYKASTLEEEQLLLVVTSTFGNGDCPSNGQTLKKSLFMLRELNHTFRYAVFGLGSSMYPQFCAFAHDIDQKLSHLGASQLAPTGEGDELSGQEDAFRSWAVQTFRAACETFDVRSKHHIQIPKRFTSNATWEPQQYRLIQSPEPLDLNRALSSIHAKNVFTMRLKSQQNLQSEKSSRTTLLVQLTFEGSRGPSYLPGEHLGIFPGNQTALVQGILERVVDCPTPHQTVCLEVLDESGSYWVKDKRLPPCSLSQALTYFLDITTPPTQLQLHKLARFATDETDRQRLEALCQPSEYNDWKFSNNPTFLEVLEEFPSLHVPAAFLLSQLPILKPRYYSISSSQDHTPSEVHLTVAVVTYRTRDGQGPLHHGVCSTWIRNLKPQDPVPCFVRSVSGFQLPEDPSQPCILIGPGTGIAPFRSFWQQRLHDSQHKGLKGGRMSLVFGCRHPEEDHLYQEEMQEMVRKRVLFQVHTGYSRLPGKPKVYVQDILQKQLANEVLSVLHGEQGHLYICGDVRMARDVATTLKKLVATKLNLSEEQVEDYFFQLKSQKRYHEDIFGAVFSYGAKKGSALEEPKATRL
Kind of experiment: Inhibition of purified mouse inducible nitric oxide synthase catalyzed [14C]L-citrulline production at a compound concentration of 1 mM in presence of 50 uM L-arginine.

The target of experiment [2] is T2, Nitric oxide synthase 1 (Rattus norvegicus, UniProt P29476). Kind of experiment: Inhibition of rat neuronal nitric oxide synthase catalyzed [14C]L-citrulline production at a compound concentration of 1 mM in presence of 50 uM L-arginine.
Experiment [3] addresses T3, Nitric oxide synthase 3 (Bos taurus, UniProt P29473).
T3 sequence (P29473 whole entry): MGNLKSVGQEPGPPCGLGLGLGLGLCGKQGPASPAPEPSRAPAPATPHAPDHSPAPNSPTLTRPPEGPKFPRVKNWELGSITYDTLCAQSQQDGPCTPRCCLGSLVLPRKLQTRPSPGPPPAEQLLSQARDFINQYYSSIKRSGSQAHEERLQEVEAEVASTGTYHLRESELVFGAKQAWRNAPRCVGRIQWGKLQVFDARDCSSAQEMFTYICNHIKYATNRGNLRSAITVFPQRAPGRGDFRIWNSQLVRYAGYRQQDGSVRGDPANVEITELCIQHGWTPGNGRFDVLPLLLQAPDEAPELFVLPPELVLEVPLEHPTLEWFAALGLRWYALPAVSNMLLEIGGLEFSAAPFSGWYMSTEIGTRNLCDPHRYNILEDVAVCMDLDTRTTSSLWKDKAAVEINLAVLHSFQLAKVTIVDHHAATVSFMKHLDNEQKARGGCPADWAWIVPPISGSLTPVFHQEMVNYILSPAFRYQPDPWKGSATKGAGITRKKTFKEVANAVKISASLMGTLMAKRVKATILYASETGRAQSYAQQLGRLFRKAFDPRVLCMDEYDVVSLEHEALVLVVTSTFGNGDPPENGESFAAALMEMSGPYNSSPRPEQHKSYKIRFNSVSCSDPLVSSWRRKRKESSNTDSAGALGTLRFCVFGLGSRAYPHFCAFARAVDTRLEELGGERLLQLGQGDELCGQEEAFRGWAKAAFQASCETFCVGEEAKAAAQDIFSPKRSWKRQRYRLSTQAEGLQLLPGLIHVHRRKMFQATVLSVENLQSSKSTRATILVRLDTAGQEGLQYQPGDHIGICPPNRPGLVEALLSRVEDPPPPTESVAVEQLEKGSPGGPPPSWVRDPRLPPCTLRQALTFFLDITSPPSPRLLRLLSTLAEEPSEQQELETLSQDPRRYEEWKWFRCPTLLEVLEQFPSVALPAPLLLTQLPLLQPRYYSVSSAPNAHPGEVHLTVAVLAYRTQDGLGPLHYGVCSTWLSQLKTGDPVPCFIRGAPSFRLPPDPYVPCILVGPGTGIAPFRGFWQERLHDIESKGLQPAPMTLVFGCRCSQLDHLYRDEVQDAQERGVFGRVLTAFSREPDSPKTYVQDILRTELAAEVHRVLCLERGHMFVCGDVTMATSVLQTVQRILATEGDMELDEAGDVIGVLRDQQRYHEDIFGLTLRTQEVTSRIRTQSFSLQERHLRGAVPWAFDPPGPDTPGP
Kind of experiment: Inhibition of bovine endothelial nitric oxide synthase catalyzed [14C]L-citrulline production at a compound concentration of 1 mM in presence of 50 uM L-arginine.

Experiment [4] addresses T3, Nitric oxide synthase 3. The experiment in a line: Compound was evaluated as nitric oxide producing substrate of bovine Endothelial nitric oxide synthase using the Griess assay; NA means Not active. (Griess reagent forms a coloured azo dye with nitrite.)
Experiment [5] deals with T1, Nitric oxide synthase, inducible. Kind of experiment: Compound was evaluated as nitric oxide producing substrate of mouse Inducible nitric oxide synthase using the Griess assay; NA means Not active.
In experiment [6] the target is T2, Nitric oxide synthase 1. The experiment in a line: Compound was evaluated as nitric oxide producing substrate of rat Neuronal nitric oxide synthase using the Griess assay; NA means Not active.

Bounds are passed on as bounds.

T2 sequence (P29476 whole entry): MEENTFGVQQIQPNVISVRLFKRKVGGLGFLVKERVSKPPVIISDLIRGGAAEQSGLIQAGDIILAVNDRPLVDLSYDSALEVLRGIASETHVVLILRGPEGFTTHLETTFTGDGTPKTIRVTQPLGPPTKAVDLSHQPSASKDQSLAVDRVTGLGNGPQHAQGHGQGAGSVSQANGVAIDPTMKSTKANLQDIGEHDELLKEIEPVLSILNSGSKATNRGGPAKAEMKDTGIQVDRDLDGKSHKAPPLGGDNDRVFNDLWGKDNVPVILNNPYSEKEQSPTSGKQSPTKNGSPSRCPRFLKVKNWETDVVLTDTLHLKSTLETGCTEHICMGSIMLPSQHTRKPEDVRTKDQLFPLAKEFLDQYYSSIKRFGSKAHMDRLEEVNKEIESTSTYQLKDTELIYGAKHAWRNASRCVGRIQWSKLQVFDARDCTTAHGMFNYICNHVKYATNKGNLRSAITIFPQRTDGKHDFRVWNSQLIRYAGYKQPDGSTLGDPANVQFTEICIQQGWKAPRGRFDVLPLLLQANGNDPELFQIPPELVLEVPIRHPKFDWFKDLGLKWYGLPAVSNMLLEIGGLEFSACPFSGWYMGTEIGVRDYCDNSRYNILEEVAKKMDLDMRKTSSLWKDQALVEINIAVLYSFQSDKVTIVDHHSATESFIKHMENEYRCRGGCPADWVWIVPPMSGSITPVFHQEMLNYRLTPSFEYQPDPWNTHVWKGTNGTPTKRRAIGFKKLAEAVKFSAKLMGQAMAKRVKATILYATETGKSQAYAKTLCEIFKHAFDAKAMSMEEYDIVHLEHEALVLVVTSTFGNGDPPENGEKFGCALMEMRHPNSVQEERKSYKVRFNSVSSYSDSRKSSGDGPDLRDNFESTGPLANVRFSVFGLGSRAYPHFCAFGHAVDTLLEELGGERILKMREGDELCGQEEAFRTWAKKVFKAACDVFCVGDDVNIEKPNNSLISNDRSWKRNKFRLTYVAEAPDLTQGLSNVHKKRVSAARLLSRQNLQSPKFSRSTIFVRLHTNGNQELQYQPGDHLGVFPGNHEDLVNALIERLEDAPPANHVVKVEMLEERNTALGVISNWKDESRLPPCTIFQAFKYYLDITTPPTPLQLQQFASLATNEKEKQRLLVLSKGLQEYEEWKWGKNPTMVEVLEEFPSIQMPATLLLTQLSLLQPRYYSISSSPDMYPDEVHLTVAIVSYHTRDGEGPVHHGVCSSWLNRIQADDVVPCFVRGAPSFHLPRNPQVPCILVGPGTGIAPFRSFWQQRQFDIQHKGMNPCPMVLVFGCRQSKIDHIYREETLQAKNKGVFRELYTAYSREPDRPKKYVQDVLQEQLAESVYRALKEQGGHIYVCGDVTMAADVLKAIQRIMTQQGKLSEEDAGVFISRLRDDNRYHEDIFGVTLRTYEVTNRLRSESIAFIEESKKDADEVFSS

Broadly, the IC50 is the concentration that gives 50% inhibition. For the molecule `N=C(N)NCc1ncc[nH]1`, the IC50 in experiment [1] amounted to 138 µM.

As to `N/C(=N\CCC[C@@H](N)C(=O)O)NCc1ncc[nH]1`, the half-maximal inhibitory concentration (IC50) at Nitric oxide synthase 1 [2] came to 1590 µM; at Nitric oxide synthase 3 [3], 347 µM.

Take `N/C(=N\CCC[C@@H](N)C(=O)O)NCCc1ncc[nH]1`: the IC50 amounted to 1490 µM on Nitric oxide synthase 1 [2] and 629 µM at Nitric oxide synthase 3 [3].

As to `N=C(N)NCCc1c[nH]cn1`, the NO-producing substrate activity entry at Nitric oxide synthase 3 [4] is “Not Active”. The “NO production as substrate” value (in experiment [5]; at Nitric oxide synthase 1 [6]) was “Not Active” throughout.

Turning to `N/C(=N\CCC[C@@H](N)C(=O)O)NCCc1c[nH]cn1`, the IC50 at Nitric oxide synthase 3 [3] was 1090 µM.

In the case of `N/C(=N\CCC[C@H](N)C(=O)O)NCc1c[nH]cn1`, the NO-producing substrate activity entry on Nitric oxide synthase 3 [4] is on record as “Not Active”. Also, the “NO production as substrate” value (in experiment [5]; at Nitric oxide synthase 1 [6]) was “Not Active” throughout.

As for `N=C(N)NCCc1ncc[nH]1`, the NO-producing substrate activity result at Nitric oxide synthase 3 [4] was “Not Active”. For the same molecule, the “NO production as substrate” value (in experiment [5]; at Nitric oxide synthase 1 [6]) was “Not Active” each time.

For `N=C(N)NCc1c[nH]cn1`, at Nitric oxide synthase 3 [4], the NO-producing substrate activity result is reported as “Not Active”. Moreover, the “NO production as substrate” value (in experiment [5]; at Nitric oxide synthase 1 [6]) was “Not Active” each time.

On to `c1ccc(-c2ncc[nH]2)cc1` [2-PHENYLIMIDAZOLE], for which the concentration for half-maximal inhibition (IC50) in experiment [1] is over 1000 µM.

`c1c[nH]cn1` [IMIDAZOLE]: the IC50 in experiment [1] was determined as 40 µM.

The record behind these values is ChEMBL document CHEMBL1132035, “Guanidine-substituted imidazoles as inhibitors of nitric oxide synthase” (Bioorg Med Chem Lett, 1999).
